From BigSolDB 2.1

N=C(Nc1ccccc1)Nc1ccccc1
solubility (mole fraction) (in acetonitrile, 273.15 K): 0.00811
solubility (mole fraction) (in acetonitrile, 275.65 K): 0.00911
solubility (mole fraction) (in acetonitrile, 278.15 K): 0.0103
solubility (mole fraction) (in acetonitrile, 280.65 K): 0.011
solubility (mole fraction) (in acetonitrile, 283.15 K): 0.012
solubility (mole fraction) (in acetonitrile, 285.65 K): 0.0131
solubility (mole fraction) (in ethanol, 273.15 K): 0.0139
solubility (mole fraction) (in ethanol, 275.65 K): 0.0152
solubility (mole fraction) (in ethanol, 278.15 K): 0.017
solubility (mole fraction) (in ethanol, 280.65 K): 0.0191
solubility (mole fraction) (in ethanol, 283.15 K): 0.0192
solubility (mole fraction) (in ethanol, 285.65 K): 0.0214
solubility (mole fraction) (in isobutanol, 273.15 K): 0.0128
solubility (mole fraction) (in isobutanol, 275.65 K): 0.0138
solubility (mole fraction) (in isobutanol, 278.15 K): 0.0142
solubility (mole fraction) (in isobutanol, 280.65 K): 0.0166
solubility (mole fraction) (in isobutanol, 283.15 K): 0.0177
solubility (mole fraction) (in isobutanol, 285.65 K): 0.0183
solubility (mole fraction) (in n-propanol, 273.15 K): 0.0152
solubility (mole fraction) (in n-propanol, 275.65 K): 0.0171
solubility (mole fraction) (in n-propanol, 278.15 K): 0.0181
solubility (mole fraction) (in n-propanol, 280.65 K): 0.021
solubility (mole fraction) (in n-propanol, 283.15 K): 0.0215
solubility (mole fraction) (in n-propanol, 285.65 K): 0.0241
solubility (mole fraction) (in toluene, 273.15 K): 0.00134
solubility (mole fraction) (in toluene, 275.65 K): 0.00149
solubility (mole fraction) (in toluene, 278.15 K): 0.00178
solubility (mole fraction) (in toluene, 280.65 K): 0.00189
solubility (mole fraction) (in toluene, 283.15 K): 0.00219
solubility (mole fraction) (in toluene, 285.65 K): 0.0024

O=C(O)Cc1ccccc1Cl
solubility (mole fraction) (in 2-butanone, 273.15 K): 0.254
solubility (mole fraction) (in 2-butanone, 278.15 K): 0.282
solubility (mole fraction) (in 2-butanone, 283.15 K): 0.315
solubility (mole fraction) (in 2-butanone, 288.15 K): 0.351
solubility (mole fraction) (in 2-butanone, 293.15 K): 0.389
solubility (mole fraction) (in 2-butanone, 298.15 K): 0.426
solubility (mole fraction) (in 2-butanone, 303.15 K): 0.462
solubility (mole fraction) (in 2-butanone, 308.15 K): 0.496
solubility (mole fraction) (in 2-butanone, 313.15 K): 0.528
solubility (mole fraction) (in 2-butanone, 318.15 K): 0.567
solubility (mole fraction) (in acetone, 273.15 K): 0.209
solubility (mole fraction) (in acetone, 278.15 K): 0.225
solubility (mole fraction) (in acetone, 283.15 K): 0.242
solubility (mole fraction) (in acetone, 288.15 K): 0.261
solubility (mole fraction) (in acetone, 293.15 K): 0.281
solubility (mole fraction) (in acetone, 298.15 K): 0.303
solubility (mole fraction) (in acetone, 303.15 K): 0.326
solubility (mole fraction) (in acetone, 308.15 K): 0.352
solubility (mole fraction) (in acetone, 313.15 K): 0.38
solubility (mole fraction) (in acetone, 318.15 K): 0.412
solubility (mole fraction) (in acetonitrile, 273.15 K): 0.0582
solubility (mole fraction) (in acetonitrile, 278.15 K): 0.0738
solubility (mole fraction) (in acetonitrile, 283.15 K): 0.0925
solubility (mole fraction) (in acetonitrile, 288.15 K): 0.114
solubility (mole fraction) (in acetonitrile, 293.15 K): 0.139
solubility (mole fraction) (in acetonitrile, 298.15 K): 0.168
solubility (mole fraction) (in acetonitrile, 303.15 K): 0.199
solubility (mole fraction) (in acetonitrile, 308.15 K): 0.234
solubility (mole fraction) (in acetonitrile, 313.15 K): 0.272
solubility (mole fraction) (in acetonitrile, 318.15 K): 0.314
solubility (mole fraction) (in cyclohexane, 283.15 K): 0.00197
solubility (mole fraction) (in cyclohexane, 288.15 K): 0.00263
solubility (mole fraction) (in cyclohexane, 293.15 K): 0.00346
solubility (mole fraction) (in cyclohexane, 298.15 K): 0.00454
solubility (mole fraction) (in cyclohexane, 303.15 K): 0.00601
solubility (mole fraction) (in cyclohexane, 308.15 K): 0.00799
solubility (mole fraction) (in cyclohexane, 313.15 K): 0.0107
solubility (mole fraction) (in cyclohexane, 318.15 K): 0.0145
solubility (mole fraction) (in ethyl acetate, 273.15 K): 0.175
solubility (mole fraction) (in ethyl acetate, 278.15 K): 0.193
solubility (mole fraction) (in ethyl acetate, 283.15 K): 0.214
solubility (mole fraction) (in ethyl acetate, 288.15 K): 0.237
solubility (mole fraction) (in ethyl acetate, 293.15 K): 0.258
solubility (mole fraction) (in ethyl acetate, 298.15 K): 0.284
solubility (mole fraction) (in ethyl acetate, 303.15 K): 0.312
solubility (mole fraction) (in ethyl acetate, 308.15 K): 0.342
solubility (mole fraction) (in ethyl acetate, 313.15 K): 0.372
solubility (mole fraction) (in ethyl acetate, 318.15 K): 0.407
solubility (mole fraction) (in ethylbenzene, 273.15 K): 0.0217
solubility (mole fraction) (in ethylbenzene, 278.15 K): 0.0278
solubility (mole fraction) (in ethylbenzene, 283.15 K): 0.0348
solubility (mole fraction) (in ethylbenzene, 288.15 K): 0.0437
solubility (mole fraction) (in ethylbenzene, 293.15 K): 0.0542
solubility (mole fraction) (in ethylbenzene, 298.15 K): 0.0678
solubility (mole fraction) (in ethylbenzene, 303.15 K): 0.0853
solubility (mole fraction) (in ethylbenzene, 308.15 K): 0.106
solubility (mole fraction) (in ethylbenzene, 313.15 K): 0.132
solubility (mole fraction) (in ethylbenzene, 318.15 K): 0.165
solubility (mole fraction) (in isobutanol, 273.15 K): 0.15
solubility (mole fraction) (in isobutanol, 278.15 K): 0.172
solubility (mole fraction) (in isobutanol, 283.15 K): 0.199
solubility (mole fraction) (in isobutanol, 288.15 K): 0.226
solubility (mole fraction) (in isobutanol, 293.15 K): 0.256
solubility (mole fraction) (in isobutanol, 298.15 K): 0.288
solubility (mole fraction) (in isobutanol, 303.15 K): 0.322
solubility (mole fraction) (in isobutanol, 308.15 K): 0.357
solubility (mole fraction) (in isobutanol, 313.15 K): 0.394
solubility (mole fraction) (in isobutanol, 318.15 K): 0.433
solubility (mole fraction) (in isopropanol, 273.15 K): 0.18
solubility (mole fraction) (in isopropanol, 278.15 K): 0.206
solubility (mole fraction) (in isopropanol, 283.15 K): 0.235
solubility (mole fraction) (in isopropanol, 288.15 K): 0.266
solubility (mole fraction) (in isopropanol, 293.15 K): 0.298
solubility (mole fraction) (in isopropanol, 298.15 K): 0.336
solubility (mole fraction) (in isopropanol, 303.15 K): 0.369
solubility (mole fraction) (in isopropanol, 308.15 K): 0.407
solubility (mole fraction) (in isopropanol, 313.15 K): 0.446
solubility (mole fraction) (in isopropanol, 318.15 K): 0.486
solubility (mole fraction) (in n-butanol, 273.15 K): 0.142
solubility (mole fraction) (in n-butanol, 278.15 K): 0.164
solubility (mole fraction) (in n-butanol, 283.15 K): 0.19
solubility (mole fraction) (in n-butanol, 288.15 K): 0.217
solubility (mole fraction) (in n-butanol, 293.15 K): 0.247
solubility (mole fraction) (in n-butanol, 298.15 K): 0.28
solubility (mole fraction) (in n-butanol, 303.15 K): 0.314
solubility (mole fraction) (in n-butanol, 308.15 K): 0.349
solubility (mole fraction) (in n-butanol, 313.15 K): 0.387
solubility (mole fraction) (in n-butanol, 318.15 K): 0.425
solubility (mole fraction) (in n-propanol, 273.15 K): 0.16
solubility (mole fraction) (in n-propanol, 278.15 K): 0.184
solubility (mole fraction) (in n-propanol, 283.15 K): 0.21
solubility (mole fraction) (in n-propanol, 288.15 K): 0.237
solubility (mole fraction) (in n-propanol, 293.15 K): 0.268
solubility (mole fraction) (in n-propanol, 298.15 K): 0.299
solubility (mole fraction) (in n-propanol, 303.15 K): 0.332
solubility (mole fraction) (in n-propanol, 308.15 K): 0.368
solubility (mole fraction) (in n-propanol, 313.15 K): 0.405
solubility (mole fraction) (in n-propanol, 318.15 K): 0.446
solubility (mole fraction) (in toluene, 273.15 K): 0.0241
solubility (mole fraction) (in toluene, 278.15 K): 0.0307
solubility (mole fraction) (in toluene, 283.15 K): 0.0388
solubility (mole fraction) (in toluene, 288.15 K): 0.0491
solubility (mole fraction) (in toluene, 293.15 K): 0.0617
solubility (mole fraction) (in toluene, 298.15 K): 0.0778
solubility (mole fraction) (in toluene, 303.15 K): 0.0975
solubility (mole fraction) (in toluene, 308.15 K): 0.122
solubility (mole fraction) (in toluene, 313.15 K): 0.153
solubility (mole fraction) (in toluene, 318.15 K): 0.191
solubility (mole fraction) (in water, 273.15 K): 0.000141
solubility (mole fraction) (in water, 278.15 K): 0.000186
solubility (mole fraction) (in water, 283.15 K): 0.000243
solubility (mole fraction) (in water, 288.15 K): 0.000311
solubility (mole fraction) (in water, 293.15 K): 0.000394
solubility (mole fraction) (in water, 298.15 K): 0.000506
solubility (mole fraction) (in water, 303.15 K): 0.000645
solubility (mole fraction) (in water, 308.15 K): 0.000821
solubility (mole fraction) (in water, 313.15 K): 0.00105
solubility (mole fraction) (in water, 318.15 K): 0.00134
